Where only a bound is given, the exact number is not on record here.

In data set [1] the test system is OVCAR-3. Briefly: Antimitotic activity in human OVCAR-3 cells xenografted in CD-1 mouse assessed as fold increase in mitotic cells in tumor at 100 mg/kg, po measured after 24 hrs relative to control. It counts as functional.
Data set [2] can be described thus: Metabolic stability in human liver microsomes assessed as intrinsic clearance at 0.5 uM incubated upto 40 mins by LCMS analysis. It counts as ADME, Microsome. The following applies: read-out: CLH.
Data set [3] is described as follows: Volume of distribution at steady state in CD-1 mouse at 1 mg/kg, iv and 10 mg/kg, po. As to conditions: in vivo. It counts as ADME, organism-based.
The target of data set [4] is T1, Kinesin-like protein KIF18A (Homo sapiens, UniProt Q8NI77).
T1 sequence (Q8NI77 whole entry): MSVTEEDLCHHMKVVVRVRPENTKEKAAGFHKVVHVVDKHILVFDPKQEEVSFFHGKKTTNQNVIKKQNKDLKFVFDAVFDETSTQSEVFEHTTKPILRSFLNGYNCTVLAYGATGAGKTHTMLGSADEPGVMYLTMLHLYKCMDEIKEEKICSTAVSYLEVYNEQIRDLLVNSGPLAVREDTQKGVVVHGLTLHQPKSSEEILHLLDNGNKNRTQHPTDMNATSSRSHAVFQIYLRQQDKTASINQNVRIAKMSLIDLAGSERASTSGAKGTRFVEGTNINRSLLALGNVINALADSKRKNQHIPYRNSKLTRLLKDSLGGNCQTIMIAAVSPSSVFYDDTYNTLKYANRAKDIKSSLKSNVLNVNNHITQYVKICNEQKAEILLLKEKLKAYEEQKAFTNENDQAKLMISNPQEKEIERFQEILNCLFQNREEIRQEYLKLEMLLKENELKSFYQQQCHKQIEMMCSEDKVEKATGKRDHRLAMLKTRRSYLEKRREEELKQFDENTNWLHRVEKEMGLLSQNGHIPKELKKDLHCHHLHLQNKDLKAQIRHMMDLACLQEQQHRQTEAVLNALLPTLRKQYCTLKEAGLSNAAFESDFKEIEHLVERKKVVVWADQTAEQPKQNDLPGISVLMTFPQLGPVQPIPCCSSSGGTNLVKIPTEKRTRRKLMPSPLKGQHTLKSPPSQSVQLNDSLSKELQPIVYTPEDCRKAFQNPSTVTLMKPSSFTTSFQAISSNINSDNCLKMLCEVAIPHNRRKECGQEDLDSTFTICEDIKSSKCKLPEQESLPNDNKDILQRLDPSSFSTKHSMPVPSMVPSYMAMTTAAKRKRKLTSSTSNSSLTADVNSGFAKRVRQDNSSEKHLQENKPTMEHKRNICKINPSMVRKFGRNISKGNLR
Briefly: Inhibition of recombinant His-tagged human KIF18A (1 to 467 residues) expressed in Trichoplusia ni insect cells assessed as inhibition of microtubule-stimulated ATPase activity preincubated for 30 mins followed by ATP addition and further incubated for 15 mins by ADP-Glo reagent based assay. Also noted: species or system Insect cell.

For data set [5], the system named is OVCAR-3. Briefly: Induction of mitotic arrest in human OVCAR-3 cells assessed as p-histone H3 incubated for 24 hrs by mitotic - imaging assay. It counts as functional, cell-based. The following applies: OVCAR-3, 24 h.
A short description of data set [6]: Cmax in CD-1 mouse at 1 mg/kg, iv and 10 mg/kg, po. Type of data set: ADME, organism-based. Also noted: dose 10 mg/kg, route po. As to conditions: in vivo.
A short description of data set [7]: Oral bioavailability in CD-1 mouse at 10 mg/kg. The following applies: in vivo. Type of data set: ADME, organism-based.
A short description of data set [8]: Clearance in CD-1 mouse at 1 mg/kg, iv and 10 mg/kg, po. It counts as ADME, organism-based. As to conditions: in vivo.
Data set [9] is described as follows: Half life in CD-1 mouse at 1 mg/kg, iv and 10 mg/kg, po. As to conditions: in vivo. Type of data set: ADME, organism-based.
Data set [10] in a line: Unbound fraction in plasma (unknown origin) by ultracentrifugation. It counts as ADME, cell-free.
The nature of data set [11]: Metabolic stability in mouse liver microsomes assessed as intrinsic clearance at 0.5 uM incubated upto 40 mins by LCMS analysis. It counts as ADME, Microsome. As to conditions: read-out: CLH.
The test system of data set [12] is OVCAR-3. The data set can be described thus: Antiproliferative activity against human OVCAR-3 cells by nuclear count assay. Type of data set: functional, cell-based.
Data set [13] in a line: AUC (0 to 24 hrs) in CD-1 mouse xenografted with human OVCAR-3 cells at 100 mg/kg, ip by LC-MS/MS analysis. Type of data set: ADME, organism-based. The arrangement: dose 100 mg/kg, route ip. As to conditions: in vivo.
The nature of data set [14]: Plasma concentration in CD-1 mouse xenografted with human OVCAR-3 cells at 100 mg/kg, ip measured upto 24 hrs by LC-MS/MS analysis. It counts as ADME, organism-based.
Data set [15] is described as follows: Cmax in CD-1 mouse xenografted with human OVCAR-3 cells at 100 mg/kg, ip by LC-MS/MS analysis. Also noted: dose 100 mg/kg, route ip. Type of data set: ADME, organism-based. As to conditions: in vivo.
A short description of data set [16]: Unbound fraction in CD-1 mouse plasma xenografted with human OVCAR-3 cells at 100 mg/kg, ip by LC-MS/MS analysis. Type of data set: ADME, organism-based.
Data set [17] has as its target T1, Kinesin-like protein KIF18A. Briefly: Binding affinity to KIF18A (unknown origin) by NMR based assay.
Data set [18] has the same target. The data set can be described thus: Inhibition of KIF18A ATPase activity (unknown origin).
Data set [19] is described as follows: Binding affinity to KIF18A- MT complex (unknown origin) by NMR based assay. Also noted: species or system Homo sapiens.
In another data set the target is Tubulin. The data set can be described thus: Binding affinity to microtubule (unknown origin) by NMR based assay. Type of data set: protein-complex assay, Homo sapiens.
Data set [20] can be described thus: Drug metabolism in mouse liver microsomes assessed as mono-hyoxylate metabolite formation in presence of NADPH by LC-MS/MS analysis. Type of data set: ADME, Microsome.
Data set [21] can be described thus: Drug metabolism in mouse liver microsomes assessed as di-hydroxylate metabolite formation in presence of NADPH by LC-MS/MS analysis. It counts as ADME, Microsome.

With `CC[C@@H]1C(=O)N(C)c2cnc(Nc3ccc(C(=O)NC4CCN(C)CC4)cc3OC)nc2N1C1CCCC1` [BI-2536], the “fold change (FC)” value in the data set on OVCAR-3 [1] was over 3.

Turning to `CC(C)(C)NS(=O)(=O)c1cccc(NC(=O)c2ncc(NC(C)(C)CO)nc2N2CCC3(CC2)CC3)c1`, the microsomal CLint at 0.5 µM in data set [2] worked out at 74 µL/min/mg; in data set [11], 76 µL/min/mg. The molecule also gave a Vdss in data set [3] of 0.7 L/kg. For the same molecule, in data set [4], the IC50 was found to be 0.135 µM. In addition, the EC50 in the data set with OVCAR-3 [5] amounted to 0.19 µM; in the data set on OVCAR-3 [12], 0.11 µM. In addition, the Cmax in data set [6] stood at 2.43 µM. The bioavailability in [7] worked out at 13%. The CL in [8] was 0.3 L/h/kg. Also, the half-life in data set [9] is 3.6 h. Besides, the fraction unbound in [10] was 0.019.

Consider `CC(C)(C)NS(=O)(=O)c1cccc(NC(=O)c2ccc(NS(=O)(=O)C3(C)CC3)cc2N2CCC3(CC2)CC3)c1`, for which the microsomal CLint at 0.5 µM in data set [2] and in data set [11] was 90 µL/min/mg each time. Also, the AUC(0-t) in data set [13] stood at 269 µM·h. In addition, the EC50 with OVCAR-3 [5] and in the data set with OVCAR-3 [12] was 0.011 µM in each case. This molecule returned a concentration at 24 h in [14] of 0.8 µM. In data set [15], the highest level (Cmax) was 26.5 µM. In data set [16], this molecule showed a fraction unbound of 0.015.

For `C[C@H](NS(=O)(=O)c1cccc(NC(=O)c2ccc(NC(CO)CO)nc2N2CCC3(CC2)CC3)c1)C(F)(F)F`, the Kd was over 50 µM in data set [17], 0.15 µM in data set [19] and 25 µM on Tubulin. Further, the IC50 in data set [4] was determined as 0.09 µM; in [18] it was 32 µM.

As to `CC(C)(C)NS(=O)(=O)c1cccc(NC(=O)c2ccc(NS(C)(=O)=O)cc2N2CCC3(CC2)CC3)c1`, the microsomal CLint at 0.5 µM in data set [2] was 79 µL/min/mg; in data set [11] it was 81 µL/min/mg. In addition, the AUC(0-t) in [13] worked out at 147 µM·h. For the same molecule, in data set [4], the IC50 was found to be 0.028 µM. In addition, the EC50 in the data set on OVCAR-3 [5] and with OVCAR-3 [12] was 0.016 µM in each case. Moreover, the concentration at 24 h in [14] was determined as 2.9 µM. The molecule also gave a Cmax in data set [15] of 12.6 µM. This molecule came in with a fraction unbound in [16] of 0.007.

For `O=C(Nc1cccc(S(=O)(=O)C2CCCC2)c1)c1cccnc1N1CCC2(CC1)CC2`, the microsomal CLint at 0.5 µM in data set [2] and in data set [11] was over 399 µL/min/mg throughout. Also, in data set [4], the IC50 is 0.41 µM. Also, the EC50 in the data set on OVCAR-3 [5] came to 1.87 µM; with OVCAR-3 [12], 1.24 µM. Also, the Drug metabolism entry in data set [20] and in data set [21] was “Metabolite_Detected” throughout.
